A word on the inhibition: it is how much of the control response was suppressed. Usually IC50 stands for the concentration needed to halve the response being measured.

Active and inactive are the calls of the source. The rule behind the calls is not given here.

Assay [1] concerns HCT-116. Kind of assay: Induction of apoptosis in human HCT116 cells assessed as DNA content at G1 phase at 20 uM after 24 hrs by annexin V-FITC/propidium iodide staining-based flow cytometric analysis (reference value: 8%). It is filed as functional. A general note: A flow cytometer gives signals particle by particle.
For assay [2], the species on record is Homo sapiens. Kind of assay: Inhibition of human Rsk.
Assay [3] concerns the target T1, Interleukin-1 receptor-associated kinase 4 (Homo sapiens) (UniProt Q9NWZ3).
T1 sequence (whole entry): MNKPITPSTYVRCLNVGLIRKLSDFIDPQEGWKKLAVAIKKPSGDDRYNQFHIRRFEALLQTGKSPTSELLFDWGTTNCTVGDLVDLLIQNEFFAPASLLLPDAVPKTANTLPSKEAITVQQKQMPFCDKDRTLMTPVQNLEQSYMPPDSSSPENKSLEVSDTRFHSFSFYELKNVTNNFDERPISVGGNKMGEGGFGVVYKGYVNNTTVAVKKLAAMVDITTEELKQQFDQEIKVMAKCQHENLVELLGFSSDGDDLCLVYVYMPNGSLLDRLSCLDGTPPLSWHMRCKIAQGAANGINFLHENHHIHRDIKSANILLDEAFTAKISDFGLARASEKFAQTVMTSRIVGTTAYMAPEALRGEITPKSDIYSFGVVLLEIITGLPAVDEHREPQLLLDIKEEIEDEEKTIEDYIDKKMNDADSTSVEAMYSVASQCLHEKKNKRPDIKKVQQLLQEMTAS
Kind of assay: Inhibition of human IRAK4.

Assay [4] concerns the target T2, Ephrin type-B receptor 3 (Homo sapiens) (UniProt P54753).
T2 sequence (whole entry): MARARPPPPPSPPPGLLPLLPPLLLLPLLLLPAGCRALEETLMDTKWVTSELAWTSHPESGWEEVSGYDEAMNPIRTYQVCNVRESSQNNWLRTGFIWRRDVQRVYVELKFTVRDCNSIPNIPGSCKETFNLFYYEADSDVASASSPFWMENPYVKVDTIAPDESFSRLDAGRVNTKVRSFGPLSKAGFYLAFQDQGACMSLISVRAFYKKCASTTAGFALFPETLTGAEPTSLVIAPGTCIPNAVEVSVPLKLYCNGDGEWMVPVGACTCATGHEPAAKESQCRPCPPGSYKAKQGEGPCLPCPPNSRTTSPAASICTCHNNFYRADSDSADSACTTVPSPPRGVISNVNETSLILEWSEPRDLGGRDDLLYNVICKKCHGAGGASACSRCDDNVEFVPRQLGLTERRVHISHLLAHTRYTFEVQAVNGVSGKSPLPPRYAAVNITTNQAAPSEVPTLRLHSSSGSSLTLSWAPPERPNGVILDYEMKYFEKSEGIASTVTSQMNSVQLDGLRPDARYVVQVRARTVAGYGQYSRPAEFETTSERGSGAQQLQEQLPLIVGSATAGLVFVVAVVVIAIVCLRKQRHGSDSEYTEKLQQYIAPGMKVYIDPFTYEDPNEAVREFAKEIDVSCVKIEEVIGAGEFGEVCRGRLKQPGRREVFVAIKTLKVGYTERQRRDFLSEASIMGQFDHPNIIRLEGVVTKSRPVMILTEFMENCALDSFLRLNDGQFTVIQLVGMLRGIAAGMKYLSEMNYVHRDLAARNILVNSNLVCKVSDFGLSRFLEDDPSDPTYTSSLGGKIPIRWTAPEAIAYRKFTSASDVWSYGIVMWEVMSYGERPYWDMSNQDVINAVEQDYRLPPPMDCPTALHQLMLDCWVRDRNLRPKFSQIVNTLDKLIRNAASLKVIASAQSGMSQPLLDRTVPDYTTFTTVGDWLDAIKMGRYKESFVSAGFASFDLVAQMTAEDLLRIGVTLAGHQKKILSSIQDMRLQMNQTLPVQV
Kind of assay: Inhibition of human EphB.

Assay [5] concerns the target T3, Serine/threonine-protein kinase Chk1 (Homo sapiens) (UniProt O14757).
T3 sequence (whole entry): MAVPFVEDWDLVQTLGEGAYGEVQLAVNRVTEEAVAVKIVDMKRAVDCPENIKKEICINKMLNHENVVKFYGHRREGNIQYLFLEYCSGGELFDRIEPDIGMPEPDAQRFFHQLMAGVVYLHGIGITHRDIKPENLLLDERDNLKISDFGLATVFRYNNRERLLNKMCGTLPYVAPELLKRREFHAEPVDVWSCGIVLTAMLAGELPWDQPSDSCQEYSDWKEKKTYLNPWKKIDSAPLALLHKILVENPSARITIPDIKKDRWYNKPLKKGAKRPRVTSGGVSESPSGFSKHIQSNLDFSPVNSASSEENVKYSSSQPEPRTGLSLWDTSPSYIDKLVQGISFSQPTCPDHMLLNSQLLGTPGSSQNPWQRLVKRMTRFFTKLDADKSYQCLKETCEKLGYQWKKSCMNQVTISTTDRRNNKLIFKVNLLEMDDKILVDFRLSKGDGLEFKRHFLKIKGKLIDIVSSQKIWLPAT
Kind of assay: Inhibition of human CHK1.

Assay [6] concerns the target RAF proto-oncogene serine/threonine-protein kinase (Homo sapiens) (UniProt P04049). In words: Inhibition of human c-RAF.
In assay [7] the target is T4, Aurora kinase A (Homo sapiens) (UniProt O14965).
T4 sequence (whole entry): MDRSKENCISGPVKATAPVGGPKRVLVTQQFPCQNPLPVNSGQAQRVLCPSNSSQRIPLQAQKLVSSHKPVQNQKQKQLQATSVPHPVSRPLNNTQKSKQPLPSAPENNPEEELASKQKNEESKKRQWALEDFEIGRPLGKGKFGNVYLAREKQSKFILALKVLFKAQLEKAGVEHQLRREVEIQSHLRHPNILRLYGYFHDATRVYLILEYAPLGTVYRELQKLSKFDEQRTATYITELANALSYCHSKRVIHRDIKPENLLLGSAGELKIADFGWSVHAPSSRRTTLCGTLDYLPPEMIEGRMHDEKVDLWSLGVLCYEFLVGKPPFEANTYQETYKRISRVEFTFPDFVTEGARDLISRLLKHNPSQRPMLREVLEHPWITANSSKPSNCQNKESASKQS
In words: Inhibition of human aurora-A. Particulars: concentration not given here.

Assay [8] relates to HCT-116. In words: Induction of apoptosis in human HCT116 cells assessed as caspase-7 cleavage at 20 uM by Western blot analysis. It is filed as functional, cell-based. Particulars: TDE = time-dependent effect. For orientation: Immunoblotting shows a protein as a band on a membrane.
In assay [9] the test system is HCT-116. Kind of assay: Cell cycle arrest in human HCT116 cells assessed as accumulation at G2/M phase at 20 uM after 48 hrs by propidium iodide staining-based flow cytometric analysis (reference value: 2.9%). It is filed as functional.
Assay [10] relates to HCT-116. In words: Cell cycle arrest in human HCT116 cells assessed as accumulation at S phase at 20 uM after 48 hrs by propidium iodide staining-based flow cytometric analysis (reference value: 2.9%). It is filed as functional.
The subject of assay [11] is HCT-116. Kind of assay: Cell cycle arrest in human HCT116 cells assessed as accumulation at sub-G1 phase at 20 uM after 24 hrs by propidium iodide staining-based flow cytometric analysis (reference value: 2.9%). It is filed as functional.
For assay [12], the system named is HCT-116. In words: Cytotoxicity against human HCT116 cells assessed as decrease in cell viability at > 20 uM after 24 hrs by CCK8 assay. It is filed as functional, cell-based. In general terms: Tetrazolium assays rely on reduction of a dye to a coloured formazan, in cell work by metabolically active cells.
The subject of assay [13] is HCT-116. Kind of assay: Cytotoxicity against human HCT116 cells assessed as cell survival at 0.5 to 5 uM after 7 days by crystal violet staining assay. It is filed as functional, cell-based. Particulars: HCT-116, 168 h.

RAF proto-oncogene serine/threonine-protein kinase (Homo sapiens), sequence (P04049 whole entry): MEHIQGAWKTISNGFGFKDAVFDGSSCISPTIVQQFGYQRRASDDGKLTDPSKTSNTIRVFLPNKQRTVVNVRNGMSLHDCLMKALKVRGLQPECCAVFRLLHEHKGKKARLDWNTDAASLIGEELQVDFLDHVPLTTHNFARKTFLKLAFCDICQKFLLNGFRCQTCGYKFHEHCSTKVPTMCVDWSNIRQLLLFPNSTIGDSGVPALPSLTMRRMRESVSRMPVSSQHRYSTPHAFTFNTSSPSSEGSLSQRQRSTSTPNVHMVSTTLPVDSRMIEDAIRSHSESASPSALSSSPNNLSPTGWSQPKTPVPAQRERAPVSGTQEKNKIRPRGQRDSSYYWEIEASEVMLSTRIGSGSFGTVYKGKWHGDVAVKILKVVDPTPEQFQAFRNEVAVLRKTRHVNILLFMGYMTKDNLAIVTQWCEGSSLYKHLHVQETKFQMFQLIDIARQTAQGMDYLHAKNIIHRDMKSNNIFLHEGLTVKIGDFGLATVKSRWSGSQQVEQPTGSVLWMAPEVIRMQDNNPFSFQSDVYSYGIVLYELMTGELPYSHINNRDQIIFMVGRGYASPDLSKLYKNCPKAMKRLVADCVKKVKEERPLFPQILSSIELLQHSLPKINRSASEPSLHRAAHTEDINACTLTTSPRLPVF

Regarding `COc1ccc2c(c1)C=C(C(=O)/C=C/c1c(OC)cc(OC)cc1OC)CO2`, the Activity in assay [1] was 99%; in [8], “tde”; in assay [9], 8.4%; in assay [10], 13.2%; in assay [11] it was 35.3%. In addition, the inhibition result in assay [2], in [3], in [4], in assay [5] and in assay [6] was “inactive” in each case. The compound also gave an inhibition in [7] of 69%. For the same compound, in assay [12], the result was Active. Besides, in assay [13], the IC50 worked out at 96.7 nM.

These data come from ChEMBL document CHEMBL2396526, “Chromenylchalcones showing cytotoxicity on human colon cancer cell lines and in silico docking with aurora kinases” (Bioorg Med Chem, 2013).
